Laboratory results as given in ChEMBL document CHEMBL5385850, “Identification of novel aza-analogs of TN-16 as disrupters of microtubule dynamics through a multicomponent reaction” (Eur J Med Chem, 2023).
The source made the active and inactive calls. The calls are words filed in the database; no cut-off is given here.

Experiments:
SH-SY5Y [1] = experiment: Cytotoxicity against human SH-SY5Y cells at 1 uM incubated for 72 hrs by MTT assay relative to control; format: functional
SH-SY5Y [2] = experiment: Upregulation of tubulin acetylation in human SH-SY5Y cells at 1 uM measured after 16 hrs by Western blot analysis; format: functional, cell-based
SH-SY5Y [3] = experiment: Cytotoxicity against human SH-SY5Y cells incubated for 48 hrs by MTT assay; format: functional, cell-based
HeLa = experiment: Cytotoxicity against human HeLa cells incubated for 48 hrs by MTT assay; format: functional, cell-based
MDA-MB-231 = experiment: Cytotoxicity against human MDA-MB-231 cells incubated for 48 hrs by MTT assay; format: functional, cell-based
SH-SY5Y [4] = experiment: Upregulation of tubulin acetylation in human SH-SY5Y cells at 70 to 350 nM measured after 16 hrs by Western blot analysis; format: functional, cell-based; settings: dose 70-350 nM
Tubulin (Homo sapiens) [5] = biological target: T1, Tubulin (Homo sapiens) (UniProt P68371+Q9H4B7+P0DPH7+P68366+Q13509+Q71U36+P04350+Q3ZCM7+P07437+P68363+Q9BQE3+Q6PEY2+Q13885+Q9BVA1+Q9BUF5); experiment: Inhibition of tubulin polymerization in human SH-SY5Y cells assessed as disappearance of tubulin network structure at 3 times EC50 measured after 16 hrs by immunofluorescence assay; format: cell-based
SH-SY5Y [6] = experiment: Upregulation of tubulin acetylation in human SH-SY5Y cells at 200 nM by immunofluorescence assay; format: functional, cell-based
Tubulin (Homo sapiens) [7] = biological target: T1, Tubulin (Homo sapiens); experiment: Inhibition of tubulin polymerization in human SH-SY5Y cells assessed as decrease in depolymerized tubulin to polymerized tubulin ratio at 1 uM measured after 16 hrs by Western blot analysis; format: cell-based
MCF7 = experiment: Cytotoxicity against human MCF7 cells incubated for 48 hrs by MTT assay; format: functional, cell-based
Tubulin (Homo sapiens) [8] = biological target: T1, Tubulin (Homo sapiens); experiment: Inhibition of tubulin polymerization (unknown origin) measured every 60 secs for 1 hr by fluorescence based analysis; format: protein-complex assay; settings: dose 1-10 µM
SH-SY5Y [9] = experiment: Induction of cell cycle arrest in human SH-SY5Y cells assessed as accumulation of cells at G2/M phase at 1 uM measured after 16 hrs by PI staining based flow cytometry analysis; format: functional
SH-SY5Y [10] = experiment: Upregulation of tubulin acetylation in human SH-SY5Y cells at 100 to 1000 nM measured after 16 hrs by Western blot analysis; format: functional, cell-based; settings: dose 100-1000 nM
SH-SY5Y [11] = experiment: Upregulation of tubulin acetylation in human SH-SY5Y cells at 300 nM by immunofluorescence assay; format: functional, cell-based
Tubulin (Homo sapiens) [12] = biological target: T1, Tubulin (Homo sapiens); experiment: Inhibition of tubulin polymerization (unknown origin) at 1 to 30 uM measured every 60 secs for 1 hr by fluorescence based analysis; format: protein-complex assay; settings: dose 1-30 µM, time 60.0 sec
Tubulin (Homo sapiens) [13] = biological target: T1, Tubulin (Homo sapiens); experiment: Inhibition of tubulin polymerization in human SH-SY5Y cells assessed as decrease in depolymerized tubulin to polymerized tubulin ratio at 100 nM measured after 16 hrs by Western blot analysis; format: cell-based

With CN(/C=C1\C(=O)N[C@@H](Cc2ccccc2)C1=O)c1ccccc1 the Activity (SH-SY5Y [1]) was 112.4%.
For C/C(Nc1ccccc1)=C1/C(=O)NN(Cc2ccccc2)C1=O, the Activity (SH-SY5Y [1]) was 36.2%.
Molecule O=C1N[C@@H](Cc2ccccc2)C(=O)/C1=C/Nc1ccccc1 has an Activity (SH-SY5Y [1]) of 70.3%.
C#CCCOc1cccc(N/C(C)=C2\C(=O)NN(Cc3ccccc3)C2=O)c1 was tested, and the Activity (SH-SY5Y [2]) was “Active” and the EC50 (SH-SY5Y [3]) was 790 nM.
C/C(Nc1ccccc1)=C1/C(=O)N[C@@H](Cc2ccccc2)C1=O was tested, and the Activity (HeLa) was “Active”, the Activity (SH-SY5Y [1]) was 34.7% and the Activity (MDA-MB-231) was “inactive”. The Activity (SH-SY5Y [4]) was “Active”, the inhibition (Tubulin (Homo sapiens) [5]) was “inactive” and the Activity (SH-SY5Y [2]) was “inactive”. For the same molecule, the Activity (SH-SY5Y [6]) was “Active”, the inhibition (Tubulin (Homo sapiens) [7]) was “inactive” and the EC50 (SH-SY5Y [3]) was 68 nM. For the same molecule, the Activity (MCF7) was “inactive”, the inhibition (Tubulin (Homo sapiens) [8]) was “Dose-Dependent Effect” and the Activity (SH-SY5Y [9]) was “Active”.
In the case of COc1ccc(/C=C\c2cc(OC)c(OC)c(OC)c2)cc1O, the Activity (MDA-MB-231) is reported as “inactive” and the Activity (MCF7) is reported as “inactive”.
In the case of C#CCOc1cccc(N/C(C)=C2\C(=O)NN(Cc3ccccc3)C2=O)c1, the inhibition (Tubulin (Homo sapiens) [5]) is reported as “inactive”, the inhibition (Tubulin (Homo sapiens) [7]) is reported as “inactive” and the EC50 (SH-SY5Y [3]) is reported as 102 nM. For the same molecule, the Activity (SH-SY5Y [10]) was “Active”, the Activity (SH-SY5Y [9]) was “Active” and the Activity (SH-SY5Y [11]) was “Active”. For the same molecule, the inhibition (Tubulin (Homo sapiens) [12]) was “Active”.
For C/C(Nc1cccc(Oc2ccccc2)c1)=C1/C(=O)NN(Cc2ccccc2)C1=O, the Activity (SH-SY5Y [2]) was “Active”, the EC50 (SH-SY5Y [3]) was 895 nM and the Activity (SH-SY5Y [9]) was “Active”.
C/C(Cc1ccccc1)=C1/C(=O)N[C@@H](Cc2ccccc2)C1=O showed an Activity (SH-SY5Y [1]) of 100.7%.
In the case of CC(=O)O[C@H]1C(=O)[C@@]2(C)[C@H]([C@H](OC(=O)c3ccccc3)[C@]3(O)C[C@H](OC(=O)[C@H](O)[C@@H](NC(=O)c4ccccc4)c4ccccc4)C(C)=C1C3(C)C)[C@]1(OC(C)=O)CO[C@@H]1C[C@@H]2O, the inhibition (Tubulin (Homo sapiens) [13]) is reported as “Active”.
